Series [1] has as its target hBChE from freshly collected human plasma (Homo sapiens, UniProt P06276). Description: Ex vivo anticholinesterase activity. The series is classed as biochemical.
For series [2] the following is noted: human plasma, following a Posiphen 40 mg dose; cited from earlier work.
Series [3] concerns the target hAChE from freshly collected human erythrocytes (Homo sapiens, UniProt P22303). Description: Ex vivo anticholinesterase activity. The series is classed as biochemical.

This is an account of results in article PMC8845043 (ACS Pharmacology & Translational Science, 2022).

Chain of hBChE from freshly collected human plasma (P06276 29-602): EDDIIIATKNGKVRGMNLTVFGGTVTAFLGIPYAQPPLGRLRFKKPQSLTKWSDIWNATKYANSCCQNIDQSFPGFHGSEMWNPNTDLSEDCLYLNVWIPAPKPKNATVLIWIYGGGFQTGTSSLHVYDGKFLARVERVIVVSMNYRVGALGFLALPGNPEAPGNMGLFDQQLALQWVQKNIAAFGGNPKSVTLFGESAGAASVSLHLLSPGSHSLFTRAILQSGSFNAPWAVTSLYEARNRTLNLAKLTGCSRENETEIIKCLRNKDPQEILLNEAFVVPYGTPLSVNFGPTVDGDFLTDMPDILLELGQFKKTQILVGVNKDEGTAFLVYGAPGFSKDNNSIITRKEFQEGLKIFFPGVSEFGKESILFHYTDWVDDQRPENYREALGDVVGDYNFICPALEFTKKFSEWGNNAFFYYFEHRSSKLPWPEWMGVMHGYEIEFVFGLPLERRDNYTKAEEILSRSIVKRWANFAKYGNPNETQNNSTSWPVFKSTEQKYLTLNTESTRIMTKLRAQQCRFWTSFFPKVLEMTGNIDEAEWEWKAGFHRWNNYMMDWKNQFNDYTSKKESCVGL
Chain of hAChE from freshly collected human erythrocytes (P22303 32-617 isoform P22303-2 limits assumed): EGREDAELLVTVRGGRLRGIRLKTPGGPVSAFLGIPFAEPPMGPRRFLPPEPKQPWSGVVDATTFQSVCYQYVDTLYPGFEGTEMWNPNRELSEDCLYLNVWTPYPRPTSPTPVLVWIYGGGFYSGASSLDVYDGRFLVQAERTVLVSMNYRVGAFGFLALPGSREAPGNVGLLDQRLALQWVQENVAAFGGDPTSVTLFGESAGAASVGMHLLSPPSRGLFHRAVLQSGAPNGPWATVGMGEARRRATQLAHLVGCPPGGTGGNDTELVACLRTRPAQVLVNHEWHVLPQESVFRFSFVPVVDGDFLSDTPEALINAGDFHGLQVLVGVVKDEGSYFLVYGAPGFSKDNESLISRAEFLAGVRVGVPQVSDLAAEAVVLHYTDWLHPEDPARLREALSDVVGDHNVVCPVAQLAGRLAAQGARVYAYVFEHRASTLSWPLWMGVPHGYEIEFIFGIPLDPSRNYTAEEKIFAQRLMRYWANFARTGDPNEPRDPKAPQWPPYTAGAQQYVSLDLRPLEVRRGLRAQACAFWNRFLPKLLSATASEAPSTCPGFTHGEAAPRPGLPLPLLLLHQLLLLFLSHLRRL

As to `CN1CC[C@@]2(C)c3cc(OC(=O)Nc4ccccc4)ccc3N(C)[C@@H]12` [Phenserine, reference compound], the IC50 (in general, the point on the concentration scale where inhibition reaches its midpoint) in series [1] was found to be 1.38 ± 0.24 µM.

As for `CN1CC[C@]2(C)c3cc(OC(=O)Nc4ccccc4)ccc3N(C)[C@H]12` [Posiphen], the “plasma concentration CMax” value in series [2] is given as 118.5 ng/mL. The IC50 in series [3] and in series [1] was over 10 µM in each case. Further, in series [3] (wet lab evaluation, human AChE), the “AChE inhibitory action (in words)” value was “lacks AChE inhibitory action”.
